From US20260159525A1, “TRICYCLIC HETEROCYCLES” (Merck Patent GmbH, priority 2021, published 2026)

Assays:
Format in all cases: cell-based
[1] = system: YAP-TEAD interaction; experiment: SK-HEP-1 reporter assay (8x TEAD responsive elements driving NanoLuc luciferase); conditions: Homo sapiens, SK-HEP1, SK-HEP-1 cells, 24 hour incubation
Outline: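 SK-HEP-1 cells carrying a stably integrated 8× TEAD-element NanoLuc reporter, seeded 24 h before dosing, were treated in duplicate with a 10-point dose series (top 30 μM final, 0.3% DMSO) for 24 h at 37°C, 5% CO2. Luciferase activity read by NanoGlo luminescence; IC50 derived from it.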

[2] = system: NCI-H226 cells; experiment: Viability assay in NCI-H226 (Yap-dependent) cells, CyQUANT; conditions: Homo sapiens, NCI-H226 YAP dependent cell line, 96 hour incubation, group symbols
Outline: (§1)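 Cells were seeded 24 h before dosing, then given a 10-point, 1:3 compound series from 30 μM final (0.3% DMSO) in duplicate. After 96 h at 37 °C, viability was read by CyQUANT DNA-dye fluorescence.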

[3] = system: SW620 Yap KO cells; experiment: Viability assay in SW620 Yap KO (Yap independent) cells, CyQUANT; conditions: Homo sapiens, SW-620, SW620 YAP and TAZ knocked out (YAP independent), 96 hour incubation, n.d. (x) = not detectable below threshold x
Outline: as §1

[4] = number, or n.d. (x) = not detectable below threshold x

Compound | IC50 ([1]; group symbols) | IC50 [2] | IC50 [3] | IC50 [1, 4]
Cn1cc2c3cc(C(=O)NCC(O)CO)sc3n(-c3ccc(C(F)(F)F)cc3)c2n1 (stereo not drawn) [Compound 97, N-(2,3-dihydroxypropyl)-4-methyl-7-[4-(trifluoromethyl)phenyl]-9-thia-4,5,7-triazatricyclo[6.3.0.0^2,6]undeca-1(8),2,5,10-tetraene-10-carboxamide] | 1 to 10 nM | 100 to 1000 nM | > 30000 nM | 
Cn1cc2c3cc(C(=O)O)sc3n(-c3ccc(C(F)F)cc3)c2n1 [Compound 99, 7-[4-(difluoromethyl)phenyl]-4-methyl-9-thia-4,5,7-triazatricyclo[6.3.0.0^2,6]undeca-1(8),2,5,10-tetraene-10-carboxylic acid] | 100 to 10000 nM | 100 to 1000 nM | > 30000 nM | 
Cn1cc2c3cc(C(=O)N4CC[C@H](O)C4)sc3n(-c3ccc(C(F)F)cc3)c2n1 [Compound 105, (3S)-1-{7-[4-(difluoromethyl)phenyl]-4-methyl-9-thia-4,5,7-triazatricyclo[6.3.0.0^2,6]undeca-1(8),2,5,10-tetraene-10-carbonyl}pyrrolidin-3-ol] | 10 to 100 nM | 100 to 1000 nM | > 30000 nM | 
Cn1cc2c3cc(C(=O)O)sc3n(-c3ccc(C(F)F)cn3)c2n1 [Compound 117, 7-[5-(difluoromethyl)pyridin-2-yl]-4-methyl-9-thia-4,5,7-triazatricyclo[6.3.0.0^2,6]undeca-1(8),2,5,10-tetraene-10-carboxylic acid] | 100 to 10000 nM | 1000 to 10000 nM | > 30000 nM | 
Cn1cc2c3cc(C(=O)O)sc3n(-c3ccc(OC(F)(F)F)cn3)c2n1 [Compound 118, 4-methyl-7-[5-(trifluoromethoxy)pyridin-2-yl]-9-thia-4,5,7-triazatricyclo[6.3.0.0^2,6]undeca-1(8),2,5,10-tetraene-10-carboxylic acid] | 10 to 100 nM | 100 to 1000 nM | > 30000 nM | 
CNC(=O)c1cc2c3cn(C)nc3n(-c3ccc(C(F)F)cn3)c2s1 [Compound 119, 7-[5-(difluoromethyl)pyridin-2-yl]-N,4-dimethyl-9-thia-4,5,7-triazatricyclo[6.3.0.0^2,6]undeca-1(8),2,5,10-tetraene-10-carboxamide] |  | 100 to 1000 nM | > 30000 nM | > 30000 nM
Cn1cc2c3cc(C(=O)N[C@@H](CO)c4ccccn4)sc3n(-c3ccc(C(F)F)cn3)c2n1 [Compound 120, 7-[5-(difluoromethyl)pyridin-2-yl]-N-[(1R)-2-hydroxy-1-(pyridin-2-yl)ethyl]-4-methyl-9-thia-4,5,7-triazatricyclo[6.3.0.0^2,6]undeca-1(8),2,5,10-tetraene-10-carboxamide] |  | 100 to 1000 nM | > 30000 nM | > 300 nM
C[C@H](CO)NC(=O)c1cc2c3cn(C)nc3n(-c3ccc(OC(F)F)cn3)c2s1 [Compound 123, 7-[5-(difluoromethoxy)pyridin-2-yl]-N-[(2R)-1-hydroxypropan-2-yl]-4-methyl-9-thia-4,5,7-triazatricyclo[6.3.0.0^2,6]undeca-1(8),2,5,10-tetraene-10-carboxamide] |  | 1 to 100 nM | > 30000 nM | > 300 nM
CNC(=O)c1cc2c3cn(C)nc3n(-c3ccc(OC(F)(F)F)cn3)c2s1 [Compound 124, N,4-dimethyl-7-[5-(trifluoromethoxy)pyridin-2-yl]-9-thia-4,5,7-triazatricyclo[6.3.0.0^2,6]undeca-1(8),2,5,10-tetraene-10-carboxamide] | 100 to 10000 nM | 1 to 100 nM | > 3000 nM | 
Cn1cc2c3cc(C(=O)N[C@@H](CO)c4ccccn4)sc3n(-c3ccc(OC(F)(F)F)cn3)c2n1 [Compound 125, N-[(1R)-2-hydroxy-1-(pyridin-2-yl)ethyl]-4-methyl-7-[5-(trifluoromethoxy)pyridin-2-yl]-9-thia-4,5,7-triazatricyclo[6.3.0.0^2,6]undeca-1(8),2,5,10-tetraene-10-carboxamide] | 100 to 10000 nM | 1 to 100 nM | > 30000 nM | 
C[C@H](CO)NC(=O)c1cc2c3cn(C)nc3n(-c3ccc(OC(F)(F)F)cn3)c2s1 [Compound 126, N-[(2R)-1-hydroxypropan-2-yl]-4-methyl-7-[5-(trifluoromethoxy)pyridin-2-yl]-9-thia-4,5,7-triazatricyclo[6.3.0.0^2,6]undeca-1(8),2,5,10-tetraene-10-carboxamide] | 10 to 100 nM | 1 to 100 nM | > 30000 nM | 

Continued, values first:

IC50 ([1]; group symbols) | IC50 [2] | IC50 [3] | IC50 [1, 4] | Compound
10 to 100 nM | 1 to 100 nM | > 3000 nM |  | CC[C@H](CO)NC(=O)c1cc2c3cn(C)nc3n(-c3ccc(C(F)(F)F)cc3)c2s1 [Compound 93, N-[(2R)-1-hydroxybutan-2-yl]-4-methyl-7-[4-(trifluoromethyl)phenyl]-9-thia-4,5,7-triazatricyclo[6.3.0.0^2,6]undeca-1(8),2,5,10-tetraene-10-carboxamide]
1 to 10 nM | 1 to 100 nM | > 30000 nM |  | Cn1nc2c3cc(C(=O)O)sc3n(-c3ccc(C(F)(F)F)cc3)c2n1 [Compound 95, 4-methyl-7-[4-(trifluoromethyl)phenyl]-9-thia-3,4,5,7-tetraazatricyclo[6.3.0.0^2,6]undeca-1(8),2,5,10-tetraene-10-carboxylic acid]
10 to 100 nM | 1 to 100 nM | > 30000 nM |  | Cn1ccc(C(CO)NC(=O)c2cc3c4cn(C)nc4n(-c4ccc(C(F)(F)F)cc4)c3s2)n1 (stereo not drawn) [Compound 96, N-[2-hydroxy-1-(1-methyl-1H-pyrazol-3-yl)ethyl]-4-methyl-7-[4-(trifluoromethyl)phenyl]-9-thia-4,5,7-triazatricyclo[6.3.0.0^2,6]undeca-1(8),2,5,10-tetraene-10-carboxamide]
10 to 100 nM | 1 to 100 nM | > 30000 nM |  | CNC(=O)c1cc2c3cn(C)nc3n(-c3ccc(C(F)F)cc3)c2s1 [Compound 100, 7-[4-(difluoromethyl)phenyl]-N,4-dimethyl-9-thia-4,5,7-triazatricyclo[6.3.0.0^2,6]undeca-1(8),2,5,10-tetraene-10-carboxamide]
10 to 100 nM | 1 to 100 nM | > 30000 nM |  | CNC(=O)c1cc2c3nn(C)nc3n(-c3ccc(C(F)(F)F)cc3)c2s1 [Compound 102, N,4-dimethyl-7-[4-(trifluoromethyl)phenyl]-9-thia-3,4,5,7-tetraazatricyclo[6.3.0.0^2,6]undeca-1(8),2,5,10-tetraene-10-carboxamide]
 | 1 to 100 nM | > 30000 nM | > 30000 nM | CNC(=O)c1cc2c3cn(C)nc3n(-c3ccc(OC(F)F)cn3)c2s1 [Compound 121, 7-[5-(difluoromethoxy)pyridin-2-yl]-N,4-dimethyl-9-thia-4,5,7-triazatricyclo[6.3.0.0^2,6]undeca-1(8),2,5,10-tetraene-10-carboxamide]
100 to 10000 nM | 1 to 100 nM | > 30000 nM |  | Cn1cc2c3cc(C(=O)N[C@@H](CO)c4ccccn4)sc3n(-c3ccc(OC(F)F)cn3)c2n1 [Compound 122, 7-[5-(difluoromethoxy)pyridin-2-yl]-N-[(1R)-2-hydroxy-1-(pyridin-2-yl)ethyl]-4-methyl-9-thia-4,5,7-triazatricyclo[6.3.0.0^2,6]undeca-1(8),2,5,10-tetraene-10-carboxamide]
